Results reported in PubChem BioAssay (NCI).
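Exposure lasted 48 hours, with cells grown in 96-well plates and compounds tested at five concentrations. TGI: concentration producing complete growth inhibition.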

How the values were obtained:
Assay in all cases: NCI anticancer screen, dose series, 48 h
UACC-257 melanoma = tested on: UACC-257 melanoma
SNB-75 CNS = tested on: SNB-75 CNS
SK-MEL-28 melanoma = tested on: SK-MEL-28 melanoma
SR leukemia = tested on: SR leukemia
OVCAR-4 ovarian = tested on: OVCAR-4 ovarian
M19-MEL melanoma = tested on: M19-MEL melanoma
K-562 leukemia = tested on: K-562 leukemia
786-0 renal = tested on: 786-0 renal
SN12C renal = tested on: SN12C renal
HL-60(TB) leukemia = tested on: HL-60(TB) leukemia
RPMI-8226 leukemia = tested on: RPMI-8226 leukemia
RXF-631 renal = tested on: RXF-631 renal
CAKI-1 renal = tested on: CAKI-1 renal
HCT-116 colon = tested on: HCT-116 colon
KM20L2 colon = tested on: KM20L2 colon
ACHN renal = tested on: ACHN renal
MALME-3M melanoma = tested on: MALME-3M melanoma
OVCAR-5 ovarian = tested on: OVCAR-5 ovarian
RXF 393 renal = tested on: RXF 393 renal
M14 melanoma = tested on: M14 melanoma
SF-295 CNS = tested on: SF-295 CNS
HCT-15 colon = tested on: HCT-15 colon
SF-539 CNS = tested on: SF-539 CNS
SW-620 colon = tested on: SW-620 colon
NCI-H460 lung = tested on: NCI-H460 lung
OVCAR-3 ovarian = tested on: OVCAR-3 ovarian
UO-31 renal = tested on: UO-31 renal
KM12 colon = tested on: KM12 colon
LXFL 529 NSCLC = tested on: LXFL 529 NSCLC
OVCAR-8 ovarian = tested on: OVCAR-8 ovarian
SK-MEL-2 melanoma = tested on: SK-MEL-2 melanoma
NCI-H23 lung = tested on: NCI-H23 lung
NCI-H522 lung = tested on: NCI-H522 lung
LOX IMVI melanoma = tested on: LOX IMVI melanoma
XF 498 CNS = tested on: XF 498 CNS
CCRF-CEM leukemia = tested on: CCRF-CEM leukemia
U251 CNS = tested on: U251 CNS
HT29 colon = tested on: HT29 colon
NCI-H226 lung = tested on: NCI-H226 lung
SF-268 CNS = tested on: SF-268 CNS
EKVX NSCLC = tested on: EKVX NSCLC
SNB-78 CNS = tested on: SNB-78 CNS
SK-MEL-5 melanoma = tested on: SK-MEL-5 melanoma
IGROV1 ovarian = tested on: IGROV1 ovarian
HCC-2998 colon = tested on: HCC-2998 colon
COLO 205 colon = tested on: COLO 205 colon
UACC-62 melanoma = tested on: UACC-62 melanoma
A549 NSCLC = tested on: A549 NSCLC
SNB-19 CNS = tested on: SNB-19 CNS
MOLT-4 leukemia = tested on: MOLT-4 leukemia
DLD-1 colon = tested on: DLD-1 colon
DMS 273 small cell lung = tested on: DMS 273 small cell lung
HOP-62 NSCLC = tested on: HOP-62 NSCLC
MDA-MB-435 = tested on: MDA-MB-435
MCF7 breast = tested on: MCF7 breast
DU-145 prostate = tested on: DU-145 prostate
TK-10 renal = tested on: TK-10 renal
DMS 114 small cell lung = tested on: DMS 114 small cell lung
MDA-MB-231 breast = tested on: MDA-MB-231 breast
A498 renal = tested on: A498 renal
SK-OV-3 ovarian = tested on: SK-OV-3 ovarian
HOP-18 NSCLC = tested on: HOP-18 NSCLC
T-47D breast = tested on: T-47D breast
HS 578T breast = tested on: HS 578T breast
HOP-92 NSCLC = tested on: HOP-92 NSCLC
BT-549 breast = tested on: BT-549 breast
PC-3 prostate = tested on: PC-3 prostate
MDA-N = tested on: MDA-N

Compound: C/C(O)=C/c1nc2ccccc2[nH]1
- TGI (UACC-257 melanoma): > 100 µM
- TGI (SNB-75 CNS): 78.8 µM
- TGI (SK-MEL-28 melanoma): > 100 µM
- TGI (SR leukemia): > 100 µM
- TGI (OVCAR-4 ovarian): > 100 µM
- TGI (M19-MEL melanoma): > 100 µM
- TGI (K-562 leukemia): > 100 µM
- TGI (786-0 renal): > 100 µM
- TGI (SN12C renal): > 100 µM
- TGI (HL-60(TB) leukemia): > 100 µM
- TGI (RPMI-8226 leukemia): > 100 µM
- TGI (RXF-631 renal): > 100 µM
- TGI (CAKI-1 renal): > 100 µM
- TGI (HCT-116 colon): > 100 µM
- TGI (KM20L2 colon): > 100 µM
- TGI (ACHN renal): > 100 µM
- TGI (MALME-3M melanoma): > 100 µM
- TGI (OVCAR-5 ovarian): > 100 µM
- TGI (RXF 393 renal): > 100 µM
- TGI (M14 melanoma): > 100 µM
- TGI (SF-295 CNS): > 100 µM
- TGI (HCT-15 colon): > 100 µM
- TGI (SF-539 CNS): > 100 µM
- TGI (SW-620 colon): > 100 µM
- TGI (NCI-H460 lung): > 100 µM
- TGI (OVCAR-3 ovarian): > 100 µM
- TGI (UO-31 renal): > 100 µM
- TGI (KM12 colon): > 100 µM
- TGI (LXFL 529 NSCLC): > 100 µM
- TGI (OVCAR-8 ovarian): > 100 µM
- TGI (SK-MEL-2 melanoma): > 100 µM
- TGI (NCI-H23 lung): > 100 µM
- TGI (NCI-H522 lung): > 100 µM
- TGI (LOX IMVI melanoma): > 100 µM
- TGI (XF 498 CNS): > 100 µM
- TGI (CCRF-CEM leukemia): > 100 µM
- TGI (U251 CNS): > 100 µM
- TGI (HT29 colon): > 100 µM
- TGI (NCI-H226 lung): > 100 µM
- TGI (SF-268 CNS): > 100 µM
- TGI (EKVX NSCLC): > 100 µM
- TGI (SNB-78 CNS): > 100 µM
- TGI (SK-MEL-5 melanoma): > 100 µM
- TGI (IGROV1 ovarian): > 100 µM
- TGI (HCC-2998 colon): > 100 µM
- TGI (COLO 205 colon): > 100 µM
- TGI (UACC-62 melanoma): > 100 µM
- TGI (A549 NSCLC): > 100 µM
- TGI (SNB-19 CNS): > 100 µM
- TGI (MOLT-4 leukemia): > 100 µM
- TGI (DLD-1 colon): > 100 µM

Compound: O=C1C=CC(=O)c2ccc(=O)ccc21
- TGI (UACC-257 melanoma): 30.4 µM
- TGI (SNB-75 CNS): 39 µM
- TGI (DMS 273 small cell lung): 58.1 µM
- TGI (SK-MEL-28 melanoma): 42.6 µM
- TGI (SR leukemia): 6.3 µM
- TGI (OVCAR-4 ovarian): 27.8 µM
- TGI (HOP-62 NSCLC): 51.5 µM
- TGI (MDA-MB-435): 46 µM
- TGI (M19-MEL melanoma): 25.5 µM
- TGI (K-562 leukemia): 14.6 µM
- TGI (786-0 renal): 32.8 µM
- TGI (MCF7 breast): > 100 µM
- TGI (SN12C renal): 32.2 µM
- TGI (HL-60(TB) leukemia): 15.8 µM
- TGI (RPMI-8226 leukemia): > 29.7 µM
- TGI (DU-145 prostate): 59.9 µM
- TGI (TK-10 renal): 33.9 µM
- TGI (DMS 114 small cell lung): 33.9 µM
- TGI (RXF-631 renal): 42.3 µM
- TGI (MDA-MB-231 breast): 45.5 µM
- TGI (CAKI-1 renal): 21 µM
- TGI (HCT-116 colon): 31.6 µM
- TGI (A498 renal): 41.6 µM
- TGI (KM20L2 colon): 46.2 µM
- TGI (SK-OV-3 ovarian): 48.8 µM
- TGI (ACHN renal): 23.5 µM
- TGI (MALME-3M melanoma): 39.6 µM
- TGI (OVCAR-5 ovarian): 35 µM
- TGI (RXF 393 renal): 16.3 µM
- TGI (M14 melanoma): 31.1 µM
- TGI (SF-295 CNS): 37.1 µM
- TGI (HCT-15 colon): 35.8 µM
- TGI (SF-539 CNS): 43.5 µM
- TGI (SW-620 colon): 14.4 µM
- TGI (NCI-H460 lung): 43.2 µM
- TGI (OVCAR-3 ovarian): 26.7 µM
- TGI (HOP-18 NSCLC): 39.1 µM
- TGI (UO-31 renal): 22.1 µM
- TGI (T-47D breast): 5.55 µM
- TGI (KM12 colon): 37.4 µM
- TGI (LXFL 529 NSCLC): 11.1 µM
- TGI (OVCAR-8 ovarian): 64.5 µM
- TGI (SK-MEL-2 melanoma): 34.8 µM
- TGI (NCI-H23 lung): 45.5 µM
- TGI (NCI-H522 lung): 5.82 µM
- TGI (LOX IMVI melanoma): > 54.1 µM
- TGI (HS 578T breast): > 100 µM
- TGI (HOP-92 NSCLC): 3.72 µM
- TGI (BT-549 breast): 31.9 µM
- TGI (PC-3 prostate): 33 µM
- TGI (U251 CNS): 30.1 µM
- TGI (HT29 colon): 50.5 µM
- TGI (NCI-H226 lung): 58.9 µM
- TGI (SF-268 CNS): 32.9 µM
- TGI (EKVX NSCLC): 50.7 µM
- TGI (SNB-78 CNS): 64.5 µM
- TGI (MDA-N): 28.8 µM
- TGI (SK-MEL-5 melanoma): 38.3 µM
- TGI (IGROV1 ovarian): 33.6 µM
- TGI (HCC-2998 colon): 31.3 µM
- TGI (COLO 205 colon): 18.9 µM
- TGI (UACC-62 melanoma): 29.9 µM
- TGI (A549 NSCLC): 64.2 µM
- TGI (SNB-19 CNS): 27.1 µM
- TGI (MOLT-4 leukemia): 5.69 µM
- TGI (DLD-1 colon): 15.6 µM
